Results as given in patent US20210393857A1, “SMALL MOLECULE DRUGS AND METHODS TO ACCELERATE OSSEOINTEGRATION” (The Regents of the University of California, priority 2018, published 2021).
Structures can show the parent of a compound that is named as a salt. Marks after values point to notes of the source that are not given here.

Assays:
[1] = tested on: Npas2-LacZ expression of mouse BMSC; assay: High throughput screening of LOPAC 1280 compounds for Npas2-LacZ expression (Beta-Glo β-galactosidase assay); format: cell-based; settings: compound 1 μM, 48 hours, BMSC from Npas2−/− mice carrying LacZ reporter
Experimental: Femur BMSC harvested from Npas2−/− mice were previously characterized for LacZ expression, which was used in this study for high throughput, unbiased screening of Library of Pharmacologically Active Compounds (LOPAC®^1280). (Hassan, N., et al., (2017) PLoS One 12, e0183359). Using 384-well plates, each well was filled with 25 μl non-phenol red DMEM containing 10% FBS and 1% PS, and added 50 nL of LOPAC®^1280 compound (final concentration: 1 μM) using 500 nL pin tool (Biomek FX, Beckman Coulter, Indianapolis, Ind.). To each well, BMSC (Npas2-LacZ) were placed as 1500 cells/25 μl suspension and incubated at room temperature for 1 hour, followed by incubation at 37° C. and 5% CO2 for 48 hours. To measure Npas2-LacZ expression, β-galactosidase activity was measured using a commercially available assay (Beta-Glo Assay System, Promega, Summerville, Calif.).
The Npas2-LacZ expression data were uploaded on an online data analysis tool (CDD Vault, Collaborative Drug Discovery, Inc, Burlingame, Calif.), on which data were normalized and Z-factor was calculated. For this study, hit compounds were selected as Z-score >2.5 or <−2.5.

I1 imidazoline receptor = settings: comparison within marsanidine, 7-Me-, 7-Cl-, 7-F-marsanidine; cited from earlier work
α2-adrenoreceptors = settings: comparison within marsanidine, 7-Me-, 7-Cl-, 7-F-marsanidine; cited from earlier work
[2] = tested on: implant osseointegration in mouse femur; assay: Implant push-out test of Ti implants placed in mouse femur; format: in vivo; settings: 75 mg/Kg daily IP for 2 weeks, machined or B-DAE-DCD surface implants, vs vehicle 0.9% NaCl
Source text: Male 10˜15-wk-old C57Bl/6J mice underwent surgical placement of Ti implants. After anesthesia with isoflurane inhalation, the distal femur was accessed via medial parapatellar arthrotomy with lateral displacement of the quadriceps-patellar complex. After locating the femoral intercondylar notch, the femoral intramedullary canal was manually reamed with a 25-gauge needle for entry into the canal and further reamed with a 23-gauge needle. A Ti implant was inserted in a retrograde fashion into each femur of a mouse. The Ti implant was clipped at 4 mm and further inserted 4 mm using a periodontal probe. The quadriceps-patellar complex was reduced to its anatomic position, and the surgical site was closed using Vicryl 5-0 sutures. Carprofen (5.0 mg/kg) (Rimadyl, Zoetis US, Parsippany, N.J.) was administered subcutaneously at the time of surgery and every 24 hours for 2 days after surgery.
Mice were euthanized and femur bones were harvested at the predetermined healing time. […] The mechanical withholding strength was measured by pushing the implant out from the femur bone marrow using a custom-made stainless-steel pushing rod mounted on a 1000-N load cell (Instron, Canton, Mass.). The axial load on the implant was applied at a cross-head speed of 1 mm/min, and displacement of the implant and the load were recorded. […]

[3] = tested on: adenosine A1 and A2 receptors; settings: selectivity A1 over A2; cited from earlier work

Row | Compound | % Activity (activity against negative controls in LOPAC 1280 screening) [1] | affinity for the I1 imidazoline receptor (rank among marsanidine analogs) (I1 imidazoline receptor) | affinity for α2-adrenoreceptors (rank among marsanidine analogs) (α2-adrenoreceptors) | also measured
1 | Cc1nccc2c1[nH]c1ccccc12 [Harmane (MS-1500866), 1-Methyl-9H-pyrido[3,4-b]indole] | −15.6** % | – | – | –
2 | O=c1ccc2c(OCCCCc3ccccc3)c3ccoc3cc2o1 [Psora-4, 5-(4-phenylbutoxy)psoralen] | 35.3% | – | – | –
3 | c1ccc2c(c1)cnn2N=C1NCCN1 [marsanidine] | – | lowest affinity for the I1 imidazoline receptor | highest affinity for α2-adrenoreceptors | –
4 | C[C@](N)(Cc1ccc(O)c(O)c1)C(=O)O [Methyldopa (L, −), L-α-Methyl-3,4-dihydroxyphenylalanine] | 18.1% | – | – | implant push-out value [2]: greater push-out value than vehicle treated control mice
5 | CC[C@@H](CO)NC(=O)[C@@H]1C=C2c3cccc4c3c(cn4C)C[C@H]2N(C)C1 [Methysergide maleate, 1-methyl-D-lysergic acid butanolamide] | 28.6% | – | – | –
6 | Clc1cccc2cnn(N=C3NCCN3)c12 [7-Cl-marsanidine] | – | lower affinity for the I1 imidazoline receptor | higher affinity for α2-adrenoreceptors | –
7 | CCCn1c(=O)c2[nH]c(-c3ccc(Cl)cc3N)nc2n(CCC)c1=O [8-(2-amino-4-chlorophenyl)-1,3-dipropylxanthine] | – | – | – | fold more potent at A1 receptors than at A2 receptors [3]: ~400 fold
8 | CCCn1c(=O)c2[nH]c(-c3ccccc3)nc2n(CCC)c1=O [1,3-dipropyl-8-phenylxanthine] | – | – | – | fold more potent at A1 receptors than at A2 receptors [3]: about 23 fold
9 | Fc1cccc2cnn(N=C3NCCN3)c12 [7-F-marsanidine] | – | higher affinity for the I1 imidazoline receptor than 7-Cl-marsanidine | comparable affinity for α2-adrenoreceptors | –
10 | Cn1c(=O)c2[nH]c(-c3ccc(S(=O)(=O)O)cc3)nc2n(C)c1=O [8-(p-Sulfophenyl)-theophylline, 8-(p-sulfophenyl) theophylline] | 104.0% | – | – | –
11 | Cc1cccc2cnn(N=C3NCCN3)c12 [7-Me-marsanidine] | – | highest affinity for the I1 imidazoline receptor | low affinity for α2-adrenoreceptors | –
12 | O=C1CCc2cc(OCCCCc3nnnn3C3CCCCC3)ccc2N1 [Cilostazol (MS-1505230), 6-[4-(1-cyclohexyl-1H-tetrazol-5-yl)-butoxy]-3,4-dihydro-2(1H)-quinolinone] | 26.2% | – | – | –
